US4522824A, “Indole derivatives of tryptamine and cardiovascular compositions thereof” (Sanofi, priority 1982, dated 1985)
Where a name gives a salt, the structure may show the parent alone.

How the values were obtained:
β-adrenergic receptors = assay: Antagonism of the effects of isoprenaline (tachycardia) in the anaesthetized dog; assay type: in vivo; conditions: dose inhibiting 80% of the tachycardia induced by i.v. isoprenaline, intravenous
Description: (§1) In vivo pharmacological action in the dog
(§2) The dog is anaesthetized with sodium pentobarbital, administered by the intravenous route at the dose of 30 mg/kg. A cannula placed in the short saphenous vein allows the products to be injected intravenously. The animal is intubated and allowed to breathe spontaneously.
(§3) The cardiac frequency (C.F.) and the systemic arterial pressure (A.P.) and the parameter (dP/dt)p^-1 max which expresses the cardiac contractibility are recorded with the aid of catheters and the variations in these parameters are measured after intravenous injection of the product to be tested, each product being tested at increasing doses.
Antagonism of the effects of isoprenaline
The antagonism of the products with respect to the stimulating cardiovascular effects of isoprenaline on the β-adrenergic receptors was sought. The results are shown in Table II hereinafter and expressed in ID80 : this is the dose expressed in mg/kg which provokes inhibition of 80% of the tachycardia induced by the isoprenaline administered by the intravenous route.

[1] = In vivo pharmacological action in the anaesthetized dog (cardiac frequency, systemic arterial pressure, cardiac contractibility); conditions: Table II, parameter name is in the drawing [drawing 9], intravenous; for direct effect: first sign; for direct effect, [drawing 9]: second sign (wrapped to next line)
Description: as §1, §2, §3

[2] = Cardiac frequency in the alert dog after oral administration; assay type: in vivo
Description: The different results on the cardiovascular system obtained in the anaesthetized dog have been confirmed for certain products in the alert dog after administration of the product by the oral route.

α-adrenergic receptors = assay: Antagonism of the effects of noradrenaline (pressive response) in the dog; assay type: in vivo; conditions: dose inhibiting 50% of the pressive response to i.v. noradrenaline
Description: as §1, §2, §3
Antagonism of the effects of noradrenaline
The antagonism of the products with respect to the vascular effects provoked by the intravenous administration of noradrenaline on the α-adrenergic receptors was sought. The results shown in Table II are expressed in ID50 : this is the dose (mg/kg) which provokes the inhibition of 50% of the pressive response due to the intravenous administration of noradrenaline.

[3] = Chronotropic effect in the dog subjected to reserpine and anaesthetized; assay type: in vivo; conditions: 1 mg/kg intravenous

Row | SMILES | ID80 isoprenaline, β-effect (β-adrenergic receptors) | direct effect [1] | direct effect, [drawing 9] [1] | effect on cardiac frequency [2] | ID50 (α-adrenergic receptors) | chronotropic effect [3]
1 | CC(C)(Cc1c[nH]c2ccccc12)NCC(O)COc1cccc2[nH]c(C(=O)O)cc12 (stereo not drawn) [SR41828A] | 0.3 mg/kg | = or .dwnarw. | = | decrease the cardiac frequency or are without action thereon | – | –
2 | CCCCN(CCCC)C(=O)c1cc2c(OCC(O)CNC(C)(C)Cc3c[nH]c4ccccc34)cccc2[nH]1 (stereo not drawn) [SR41830A] | 1 mg/kg | – | .uparw. | – | – | –
3 | CCOC(=O)c1cc2c(OCC(O)CNC(C)(C)Cc3c[nH]c4ccc(OC)cc34)cccc2[nH]1 (stereo not drawn) [SR41648] | 0.1 mg/kg | .dwnarw. | .dwnarw. | – | – | –
4 | CC(C)(Cc1c[nH]c2ccccc12)NCC(O)COc1cccc2[nH]c(CO)cc12 (stereo not drawn) [CM41165] | 0.05 mg/kg | .dwnarw. | .dwnarw. | – | – | –
5 | CC(C)(Cc1c[nH]c2ccccc12)NCC(O)COc1cccc2[nH]c(C(N)=O)cc12 (stereo not drawn) [CM41105] | 0.1 mg/kg | weak .dwnarw. | .uparw. | – | – | –
6 | CCOC(=O)c1cc2c(OCC(O)CNC(C)(CO)Cc3c[nH]c4ccccc34)cccc2[nH]1 (stereo not drawn) [SR41832] | 0.1 mg/kg | .dwnarw. | .dwnarw. | – | – | –
7 | CCOC(=O)c1cc2c(OCC(O)CNC(C)(C)Cc3c[nH]c4ccc(F)cc34)cccc2[nH]1 (stereo not drawn) [SR41779A] | – | – | – | decrease the cardiac frequency or are without action thereon | – | –
8 | CCOC(=O)c1cc2c(OCC(O)CNC(C)(C)Cc3c[nH]c4ccc(C#N)cc34)cccc2[nH]1 (stereo not drawn) [SR41831A, 4-[3-[(5-cyano 3-indolyl)1,1-dimethylethylamino]2-hydroxypropoxy]2-ethoxycarbonyl indole, neutral fumarate] | 0.1 mg/kg | .dwnarw. | .dwnarw. | – | – | –
9 | CCOC(=O)c1cc2c(OCC(O)CNC(C)(C)Cc3c[nH]c4ccc(Cl)cc34)cccc2[nH]1 (stereo not drawn) [SR41780A] | – | – | – | decrease the cardiac frequency or are without action thereon | – | –
10 | CC(C)OC(=O)c1cc2c(OCC(O)CNC(C)(C)Cc3c[nH]c4ccccc34)cccc2[nH]1 (stereo not drawn) [SR41719A] | – | – | – | decrease the cardiac frequency or are without action thereon | – | –
11 | CCOC(=O)c1cc2c(OCC(O)CNC(C)(C)Cc3c[nH]c4ccccc34)cccc2[nH]1 (stereo not drawn) [CM40593, 4-[3-[2-(3-indolyl)1,1-dimethylethylamino]2-hydroxypropoxy]2-ethoxycarbonyl indole] | 0.1 mg/kg | = or .dwnarw. | .uparw. | – | 0.1 mg/kg | slight positive chronotropic effect
12 | CCOC(=O)c1cc2c(OCC(O)CNC(C)(C)Cc3c[nH]c4ccc(C)cc34)cccc2[nH]1 (stereo not drawn) [SR41716A] | – | – | – | decrease the cardiac frequency or are without action thereon | – | –
13 | CC(C)(Cc1c[nH]c2ccccc12)NCC(O)COc1cccc2[nH]c(C#N)cc12 (stereo not drawn) [SR41370A] | 0.05 mg/kg | weak .dwnarw. | .uparw. | – | – | –
14 | CCOC(=O)c1cc2c(OCC(O)CNC(C)Cc3c[nH]c4ccccc34)cccc2[nH]1 (racemic) [SR41294A] | 0.1 mg/kg | .dwnarw. | .dwnarw. | – | – | –
